From PubChem BioAssay AID192 (DTP/NCI, 2004)
“And” between values parts separate entries of the source, which are not always exact repeats. Equal values may be shown once. Inconclusive results and toxic doses are left out.

System: BDF1 mice, B16 melanoma ip, median survival T/C
Experiment: NCI In Vivo Anticancer Drug Screen. Data for tumor model B16 Melanoma (intraperitoneal) in B6D2F1 (BDF1) mice
Conditions: endpoint: median survival time, higher = longer survival
Outline: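 Vehicle-treated animals serve as the reference (C); treated animals (T) are scored for survival or tumor size after tumor transplantation.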

[1] = dose: 100.0 mg/kg/injection, schedule: Q01DX009 (ip), vehicle: saline with Tween-80
[2] = dose: 200.0 mg/kg/injection, schedule: Q01DX009 (ip), vehicle: saline with Tween-80
[3] = dose: 400.0 mg/kg/injection, schedule: Q01DX009 (ip), vehicle: saline with Tween-80
[4] = dose: 25.0 mg/kg/injection, schedule: Q04DX003 (ip), vehicle: saline with Tween-80
[5] = dose: 50.0 mg/kg/injection, schedule: Q04DX003 (ip), vehicle: saline with Tween-80
[6] = dose: 100.0 mg/kg/injection, schedule: Q04DX003 (ip), vehicle: saline with Tween-80
[7] = dose: 50.0 mg/kg/injection, schedule: Q01DX009 (ip), vehicle: saline with Tween-80
[8] = dose: 6.25 mg/kg/injection, schedule: Q01DX009 (ip), vehicle: saline
[9] = dose: 12.5 mg/kg/injection, schedule: Q01DX009 (ip), vehicle: saline
[10] = dose: 400.0 mg/kg/injection, schedule: Q04DX003 (ip), vehicle: saline with Tween-80
[11] = dose: 25.0 mg/kg/injection, schedule: Q01DX009 (ip), vehicle: Klucel (hydroxypropylcellulose) (HPC)
[12] = dose: 50.0 mg/kg/injection, schedule: Q01DX009 (ip), vehicle: Klucel (hydroxypropylcellulose) (HPC)
[13] = dose: 100.0 mg/kg/injection, schedule: Q01DX009 (ip), vehicle: Klucel (hydroxypropylcellulose) (HPC)
[14] = dose: 200.0 mg/kg/injection, schedule: Q01DX009 (ip), vehicle: Klucel (hydroxypropylcellulose) (HPC)
[15] = dose: 400.0 mg/kg/injection, schedule: Q01DX009 (ip), vehicle: Klucel (hydroxypropylcellulose) (HPC)
[16] = dose: 12.5 mg/kg/injection, schedule: Q01DX009 (ip), vehicle: Klucel (hydroxypropylcellulose) (HPC)

In the case of `COc1ccccc1NC(=O)Nc1cc(C)cc(C)n1`, the T/C [1] is reported as 94 % of control, the T/C [2] is reported as 94 % of control and the T/C [3] is reported as 89 % of control.

For `CC1=C2CC3CCC(C)C2(CC1)C3(C)C` (configuration not stated), the T/C [4] was 105 % of control, the T/C [5] was 100 % of control and the T/C [6] was 91 % of control.

`ClC(Cl)(Cl)C(N1CCN(c2ccccc2)CC1)N1CCN(c2ccccc2)CC1` was tested, and the T/C [7] was 113 % of control, the T/C [1] was 96 % of control and the T/C [2] was 112 % of control. For the same compound, the T/C [3] was 91 % of control.

With `C[C@]12CC[C@@H]3c4ccc(Oc5nc(N6CC6)nc(N6CC6)n5)cc4CC[C@H]3[C@@H]1CCC2=O` the T/C (dose: 3.13 mg/kg/injection, schedule: Q01DX009 (ip), vehicle: saline) was 104 % of control, the T/C [8] was 113 % of control and the T/C (dose: 6.25 mg/kg/injection, schedule: Q04DX003 (ip), vehicle: saline) was 97 % of control. For the same compound, the T/C [9] was 104 % of control, the T/C (dose: 12.5 mg/kg/injection, schedule: Q04DX003 (ip), vehicle: saline) was 97 % of control and the T/C (dose: 25.0 mg/kg/injection, schedule: Q04DX003 (ip), vehicle: saline) was 102 % of control. The T/C (dose: 50.0 mg/kg/injection, schedule: Q04DX003 (ip), vehicle: saline) was 97 % of control.

For `O=[N+]([O-])c1cccc(S(=O)(=O)Nc2ccccc2Cl)c1`, the T/C [1] was 90 % of control, the T/C [2] was 95 % of control and the T/C [3] was 95 % of control.

In the case of `O=C(Nc1ccc2c(c1)Cc1cc(Br)ccc1-2)C(F)(F)F`, the T/C [4] is reported as 103 % of control, the T/C [5] is reported as 109 % of control and the T/C [6] is reported as 95 % of control and 96 % of control. The T/C [10] was 86 % of control.

In the case of `CCOC(=O)C(OCC)P(=O)(OCC)OCC` (configuration not stated), the T/C [11] is reported as 95 % of control, the T/C [12] is reported as 95 % of control and the T/C [13] is reported as 107 % of control. The T/C [14] was 102 % of control and the T/C [15] was 100 % of control.

For `NC(=S)N/N=C1/c2cc(Cl)ccc2-c2c(Cl)cc(Cl)cc21`, the T/C [1] was 93 % of control, the T/C [2] was 95 % of control and the T/C [3] was 93 % of control. The T/C (dose: 800.0 mg/kg/injection, schedule: Q01DX009 (ip), vehicle: saline with Tween-80) was 95 % of control.

In the case of `CNc1nc(NC)nc(NC)n1`, the T/C [16] is reported as 106 % of control, the T/C [11] is reported as 118 % of control and the T/C [12] is reported as 100 % of control. The T/C [13] was 109 % of control.

For `O=S(=O)(O)O.[NH-]C1CCCCC1[NH-].[Pt+2]` (configuration not stated), the T/C (dose: 0.32 mg/kg/injection, schedule: Q01DX009 (ip), vehicle: water) was 156 % of control and 167 % of control, the T/C (dose: 0.63 mg/kg/injection, schedule: Q01DX009 (ip), vehicle: dextrose) was 175 % of control and the T/C (dose: 0.63 mg/kg/injection, schedule: Q04DX003 (ip), vehicle: water) was 160 % of control. The T/C (dose: 1.25 mg/kg/injection, schedule: Q01DX009 (ip), vehicle: dextrose) was 163 % of control, the T/C (dose: 1.25 mg/kg/injection, schedule: Q04DX003 (ip), vehicle: water) was 163 % of control and the T/C (dose: 3.0 mg/kg/injection, schedule: Q01DX009 (ip), vehicle: water) was 150 % of control. The T/C (dose: 4.0 mg/kg/injection, schedule: Q01DX009 (ip), vehicle: water) was 150 % of control and the T/C (dose: 5.0 mg/kg/injection, schedule: Q04DX003 (ip), vehicle: water) was 155 % of control.

With `Cc1ccccc1OS(=O)(=O)c1cccc([N+](=O)[O-])c1` the T/C [1] was 113 % of control, the T/C [2] was 113 % of control and the T/C [3] was 107 % of control.

In the case of `COc1cccc2c1C(=O)c1c(O)c3c(c(O)c1C2=O)C[C@@](O)(/C(C)=N\NC(=O)CO)C[C@@H]3OC1CC(N)C(O)C(C)O1` (some centres not stated), the T/C (dose: 0.39 mg/kg/injection, schedule: Q01DX009 (ip), vehicle: saline) is reported as 117 % of control, the T/C (dose: 1.56 mg/kg/injection, schedule: Q01DX009 (ip), vehicle: saline) is reported as 162 % of control and the T/C (dose: 2.5 mg/kg/injection, schedule: Q01DX001 (ip), vehicle: water) is reported as 97 % of control and 100 % of control. For the same compound, the T/C (dose: 3.12 mg/kg/injection, schedule: Q01DX009 (ip), vehicle: saline) was 173 % of control and 218 % of control, the T/C [8] was 206 % of control and 375 % of control and the T/C (dose: 10.0 mg/kg/injection, schedule: Q01DX001 (ip), vehicle: water) was 108 % of control and 250 % of control. For the same compound, the T/C (dose: 20.0 mg/kg/injection, schedule: Q01DX001 (ip), vehicle: water) was 87 % of control and 102 % of control and the T/C (dose: 40.0 mg/kg/injection, schedule: Q01DX001 (ip), vehicle: water) was 95 % of control.

With `C=CCOCC(O)CNCCCOC` (configuration not stated) the T/C [8] was 102 % of control, the T/C [9] was 98 % of control and the T/C (dose: 25.0 mg/kg/injection, schedule: Q01DX009 (ip), vehicle: saline) was 98 % of control.

`Cc1cc2nc(-c3ccccc3)c(-c3ccccc3)nc2cc1C` was tested, and the T/C [1] was 102 % of control, the T/C [2] was 100 % of control and the T/C [3] was 91 % of control.

With `CCCCC(NC(=O)OC(C)(C)C)C(=O)O` (configuration not stated) the T/C [13] was 114 % of control, the T/C [14] was 104 % of control and the T/C [15] was 100 % of control.

With `CCCCOC(OCCCC)C(C)=O` the T/C [13] was 96 % of control, the T/C [14] was 93 % of control and the T/C [15] was 93 % of control.

`CCC(=O)c1ccc2c(c1)N(CCCN1CCN(CCO)CC1)c1ccccc1S2` was tested, and the T/C (dose: 0.25 mg/kg/injection, schedule: Q01DX009 (ip), vehicle: saline) was 100 % of control, the T/C (dose: 0.5 mg/kg/injection, schedule: Q01DX009 (ip), vehicle: saline) was 95 % of control and the T/C (dose: 1.0 mg/kg/injection, schedule: Q01DX009 (ip), vehicle: saline) was 92 % of control. The T/C (dose: 2.0 mg/kg/injection, schedule: Q01DX009 (ip), vehicle: saline) was 89 % of control and the T/C (dose: 4.0 mg/kg/injection, schedule: Q01DX009 (ip), vehicle: saline) was 105 % of control.

`CCC(C)C(C(=O)OCCN(C)C)c1ccccc1` (configuration not stated) was tested, and the T/C (dose: 25.0 mg/kg/injection, schedule: Q01DX009 (ip), vehicle: saline with Tween-80) was 100 % of control, the T/C [7] was 112 % of control and the T/C [1] was 99 % of control.

`CN(C(=S)S(=O)(=O)C12CC3CC(CC(C3)C1)C2)c1ccccc1` was tested, and the T/C (dose: 3.12 mg/kg/injection, schedule: Q01DX009 (ip), vehicle: Klucel (hydroxypropylcellulose) (HPC)) was 98 % of control, the T/C (dose: 6.25 mg/kg/injection, schedule: Q01DX009 (ip), vehicle: Klucel (hydroxypropylcellulose) (HPC)) was 98 % of control and the T/C [16] was 95 % of control. The T/C [11] was 95 % of control and the T/C [12] was 88 % of control.

In the case of `CC(C)Nc1ncnc2[nH]ncc12`, the T/C (dose: 1.0 mg/kg/injection, schedule: Q01DX009 (ip), vehicle: Klucel (hydroxypropylcellulose) (HPC)) is reported as 96 % of control, the T/C (dose: 2.0 mg/kg/injection, schedule: Q01DX009 (ip), vehicle: Klucel (hydroxypropylcellulose) (HPC)) is reported as 105 % of control and the T/C (dose: 4.0 mg/kg/injection, schedule: Q01DX009 (ip), vehicle: Klucel (hydroxypropylcellulose) (HPC)) is reported as 94 % of control. For the same compound, the T/C (dose: 8.0 mg/kg/injection, schedule: Q01DX009 (ip), vehicle: Klucel (hydroxypropylcellulose) (HPC)) was 102 % of control.

For `COc1c2ccoc2c(OCC=C(C)C)c2oc(=O)ccc12`, the T/C [6] was 94 % of control, the T/C (dose: 200.0 mg/kg/injection, schedule: Q04DX003 (ip), vehicle: saline with Tween-80) was 105 % of control and the T/C [10] was 97 % of control.

With `O=C(O)c1ccc(OC(F)(F)C(F)Cl)cc1` (configuration not stated) the T/C [11] was 106 % of control, the T/C [12] was 100 % of control and the T/C [13] was 106 % of control.

In the case of `CCOC(=O)CC1=CCCCC1`, the T/C (dose: 70.0 mg/kg/injection, schedule: Q01DX009 (ip), vehicle: Klucel (hydroxypropylcellulose) (HPC)) is reported as 100 % of control, the T/C (dose: 140.0 mg/kg/injection, schedule: Q01DX009 (ip), vehicle: Klucel (hydroxypropylcellulose) (HPC)) is reported as 106 % of control and the T/C (dose: 280.0 mg/kg/injection, schedule: Q01DX009 (ip), vehicle: Klucel (hydroxypropylcellulose) (HPC)) is reported as 100 % of control.

For `COc1cccc2c1C(=O)c1c(O)c3c(c(O)c1C2=O)C[C@@](O)(C(C)=O)C[C@@H]3OC1CC(N2CCOCC2C#N)C(O)C(C)O1` (some centres not stated), the T/C (dose: 9.38 micrograms/kg/injection, schedule: Q01DX001 (ip), vehicle: distilled water + Tween-80) was 117 % of control, the T/C (dose: 18.75 micrograms/kg/injection, schedule: Q01DX001 (ip), vehicle: water) was 107 % of control and the T/C (dose: 75.0 micrograms/kg/injection, schedule: Q01DX001 (ip), vehicle: water) was 112 % of control.
